According to PubChem BioAssay AID248 (DTP/NCI, 2004):
“And” between values parts separate entries of the source, which are not always exact repeats. Equal values may be shown once. Inconclusive results and toxic doses are left out. Cut-off read from the data, not from the text of the source: active = T/C of 150% or more; inactive = T/C below 125%.

Test system: L1210 leukemia ip in BDF1 mice, survival T/C
Experiment: NCI In Vivo Anticancer Drug Screen. Data for tumor model L1210 Leukemia (intraperitoneal) in B6D2F1 (BDF1) mice
Details: endpoint: mean survival time, higher = longer survival
Method in brief: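 Ratio derived from survival: compound-dosed mice over vehicle-dosed mice, all bearing a transplantable tumor.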

[1] = dose: 100.0 mg/kg/injection, schedule: Q04DX003 (ip), vehicle: saline with Tween-80
[2] = dose: 100.0 mg/kg/injection, schedule: Q01DX009 (ip), vehicle: carboxymethylcellulose (CMC)
[3] = dose: 100.0 mg/kg/injection, schedule: Q04DX002 (ip), vehicle: Klucel (hydroxypropylcellulose) (HPC)
[4] = dose: 200.0 mg/kg/injection, schedule: Q04DX002 (ip), vehicle: Klucel (hydroxypropylcellulose) (HPC)
[5] = dose: 100.0 mg/kg/injection, schedule: Q01DX001 (ip), vehicle: other
[6] = dose: 200.0 mg/kg/injection, schedule: Q01DX001 (ip), vehicle: other
[7] = dose: 400.0 mg/kg/injection, schedule: Q01DX001 (ip), vehicle: other
[8] = dose: 400.0 mg/kg/injection, schedule: Q04DX002 (ip), vehicle: Klucel (hydroxypropylcellulose) (HPC)
[9] = dose: 100.0 mg/kg/injection, schedule: Q04DX003 (ip), vehicle: Klucel (hydroxypropylcellulose) (HPC)
[10] = dose: 200.0 mg/kg/injection, schedule: Q04DX003 (ip), vehicle: Klucel (hydroxypropylcellulose) (HPC)
[11] = dose: 400.0 mg/kg/injection, schedule: Q04DX003 (ip), vehicle: Klucel (hydroxypropylcellulose) (HPC)
[12] = dose: 100.0 mg/kg/injection, schedule: Q01DX009 (ip), vehicle: saline with Tween-80
[13] = dose: 200.0 mg/kg/injection, schedule: Q01DX009 (ip), vehicle: saline with Tween-80
[14] = dose: 100.0 mg/kg/injection, schedule: Q01DX009 (ip), vehicle: Klucel (hydroxypropylcellulose) (HPC)
[15] = dose: 200.0 mg/kg/injection, schedule: Q01DX009 (ip), vehicle: Klucel (hydroxypropylcellulose) (HPC)
[16] = dose: 400.0 mg/kg/injection, schedule: Q01DX009 (ip), vehicle: Klucel (hydroxypropylcellulose) (HPC)
[17] = dose: 50.0 mg/kg/injection, schedule: Q01DX001 (ip), vehicle: carboxymethylcellulose (CMC)
[18] = dose: 100.0 mg/kg/injection, schedule: Q01DX001 (ip), vehicle: carboxymethylcellulose (CMC)
[19] = dose: 200.0 mg/kg/injection, schedule: Q01DX001 (ip), vehicle: carboxymethylcellulose (CMC)

Measured: T/C

COc1ccc(NC(=O)Nc2ccc(Cl)cc2C)cc1
inactive: dose: 100.0 mg/kg/injection, schedule: Q01DX009 (sc), vehicle: olive oil, sesame oil, peanut oil 100 % of control | dose: 100.0 mg/kg/injection, schedule: Q04DX003 (sc), vehicle: olive oil, sesame oil, peanut oil 101 % of control | dose: 200.0 mg/kg/injection, schedule: Q01DX009 (sc), vehicle: olive oil, sesame oil, peanut oil 102 % of control | dose: 200.0 mg/kg/injection, schedule: Q04DX003 (sc), vehicle: olive oil, sesame oil, peanut oil 100 % of control | dose: 400.0 mg/kg/injection, schedule: Q01DX009 (sc), vehicle: olive oil, sesame oil, peanut oil 96 % of control | dose: 400.0 mg/kg/injection, schedule: Q04DX003 (sc), vehicle: olive oil, sesame oil, peanut oil 98 % of control

CCC12CCC(Br)C(C1)OC2=O (configuration not stated)
inactive: [1] 98 % of control | dose: 200.0 mg/kg/injection, schedule: Q04DX003 (ip), vehicle: saline with Tween-80 91 % of control | dose: 400.0 mg/kg/injection, schedule: Q04DX003 (ip), vehicle: saline with Tween-80 93 % of control

NC1C(=O)NC(=O)NC1=O
inactive: dose: 50.0 mg/kg/injection, schedule: Q01DX009 (ip), vehicle: carboxymethylcellulose (CMC) 100 % of control | [2] 103 % of control | [3] 102 % of control | dose: 200.0 mg/kg/injection, schedule: Q01DX009 (ip), vehicle: carboxymethylcellulose (CMC) 92 % of control | [4] 104 % of control

C/C=C(\C)COC(=O)c1ccc([N+](=O)[O-])cc1
inactive: [5] 104 % of control | [6] 98 % of control | [7] 93 % of control

CCOC(=O)C/C(C)=N\NC(N)=O
inactive: [3] 104 % of control | [4] 101 % of control | [8] 97 % of control

C/C(=N/O)c1ccncc1
inactive: [9] 100 % of control | [10] 95 % of control | [11] 95 % of control

NC(=O)c1cn(C2OC(CO)C(O)C2O)c2ncn3ccnc3c12 (configuration not stated)
inactive: dose: 6.25 mg/kg/injection, schedule: Q01DX005 (ip), vehicle: saline 101 % of control | dose: 12.5 mg/kg/injection, schedule: Q01DX005 (ip), vehicle: saline 106 % of control

COc1ccc(C(=O)CCC(=O)O)cc1
inactive: [12] 102 % of control | [13] 93 % of control | dose: 400.0 mg/kg/injection, schedule: Q01DX009 (ip), vehicle: saline with Tween-80 91 % of control

CCOc1ccccc1/C=C(\C#N)c1cccc(Cl)c1
inactive: dose: 100.0 mg/kg/injection, schedule: Q01DX009 (ip), vehicle: other 87 % of control | dose: 200.0 mg/kg/injection, schedule: Q01DX009 (ip), vehicle: other 88 % of control

Cc1ccc(S(=O)(=O)N(CCC(=O)O)c2ccccc2)cc1
inactive: [12] 90 % of control | [13] 97 % of control

O=C1CC(c2ccc(O)cc2)CC(=O)C1C(C1CC=CCC1)N(CCCl)CCCl (configuration not stated)
inactive: [14] 105 % of control and 104 % of control | [9] 103 % of control | [15] 105 % of control and 100 % of control | [10] 106 % of control and 104 % of control | [16] 110 % of control and 100 % of control | [11] 110 % of control and 101 % of control

CN(C)c1ccc(/C=N\NC(=S)Nc2ccc3cn[nH]c3c2)cc1
inactive: [17] 102 % of control | [18] 102 % of control | [19] 111 % of control

CN1CCC2CCC(C1)N2C (configuration not stated)
inactive: dose: 75.0 mg/kg/injection, schedule: Q01DX001 (ip), vehicle: saline 93 % of control | dose: 150.0 mg/kg/injection, schedule: Q01DX001 (ip), vehicle: saline 100 % of control

N#Cc1c(O)ccc(O)c1C#N
inactive: [14] 87 % of control | [3] 90 % of control | [15] 87 % of control | [4] 93 % of control | [16] 94 % of control | [8] 96 % of control

NC(=O)CNC(=O)CN1C(=O)c2ccccc2C1=O
inactive: [5] 103 % of control | [6] 103 % of control | [7] 103 % of control

CN(C)CCOC(=O)c1ccccc1CCl
inactive: dose: 10.0 mg/kg/injection, schedule: Q01DX009 (ip), vehicle: saline 101 % of control | dose: 20.0 mg/kg/injection, schedule: Q01DX009 (ip), vehicle: saline 98 % of control | dose: 40.0 mg/kg/injection, schedule: Q01DX009 (ip), vehicle: saline 98 % of control

CC(=O)c1c(C)c([N+](=O)[O-])c(C(C)(C)C)c([N+](=O)[O-])c1C
inactive: [14] 100 % of control | [15] 97 % of control | [16] 96 % of control

O=C1C(=O)c2ccccc2C(O)=C1C(C1=C(O)c2ccccc2C(=O)C1=O)c1ccc(Cl)cc1Cl
inactive: dose: 75.0 mg/kg/injection, schedule: Q01DX001 (ip), vehicle: other 91 % of control | dose: 150.0 mg/kg/injection, schedule: Q01DX001 (ip), vehicle: other 91 % of control | dose: 300.0 mg/kg/injection, schedule: Q01DX001 (ip), vehicle: other 107 % of control

CCCCCCCCCCNC(=O)C[n+]1cccc(C(=O)NC)c1
inactive: dose: 12.5 mg/kg/injection, schedule: Q04DX003 (ip), vehicle: saline 95 % of control | dose: 25.0 mg/kg/injection, schedule: Q04DX003 (ip), vehicle: saline 89 % of control

O=C(COc1ccc(Cl)cc1Cl)OC(=O)COc1ccc(Cl)cc1Cl
inactive: dose: 12.5 mg/kg/injection, schedule: Q01DX009 (ip), vehicle: carboxymethylcellulose (CMC) 100 % of control and 106 % of control | dose: 25.0 mg/kg/injection, schedule: Q01DX009 (ip), vehicle: carboxymethylcellulose (CMC) 102 % of control and 103 % of control | [17] 92 % of control | dose: 50.0 mg/kg/injection, schedule: Q04DX003 (ip), vehicle: carboxymethylcellulose (CMC) 92 % of control | [18] 97 % of control | [2] 94 % of control | [3] 95 % of control | dose: 100.0 mg/kg/injection, schedule: Q04DX002 (ip), vehicle: carboxymethylcellulose (CMC) 97 % of control and 100 % of control | dose: 100.0 mg/kg/injection, schedule: Q04DX003 (ip), vehicle: carboxymethylcellulose (CMC) 94 % of control | [19] 89 % of control | [4] 95 % of control | dose: 200.0 mg/kg/injection, schedule: Q04DX002 (ip), vehicle: carboxymethylcellulose (CMC) 97 % of control and 98 % of control | [8] 98 % of control

ClC(Cl)(Cl)c1nc2nccnc2[nH]1
inactive: dose: 25.0 mg/kg/injection, schedule: Q04DX003 (ip), vehicle: saline with Tween-80 98 % of control | dose: 50.0 mg/kg/injection, schedule: Q04DX003 (ip), vehicle: saline with Tween-80 97 % of control | dose: 100.0 mg/kg/injection, schedule: Q04DX003 (ip), vehicle: saline sonified 96 % of control | [1] 110 % of control

O=C(Nc1ccc(O)cc1)Nc1cccc(Cl)c1Cl
inactive: [14] 97 % of control | [15] 92 % of control | [16] 103 % of control

N=C1SCc2ccc3ccccc3c21
inactive: [5] 92 % of control | [6] 108 % of control | [7] 97 % of control

NCCCNCCNCCCN
inactive: dose: 100.0 mg/kg/injection, schedule: Q04DX002 (ip), vehicle: saline 98 % of control | dose: 200.0 mg/kg/injection, schedule: Q04DX002 (ip), vehicle: saline 98 % of control

CC(C)(Oc1ccc(Cl)cc1)C(=O)NC(N)=O
inactive: dose: 50.0 mg/kg/injection, schedule: Q01DX009 (ip), vehicle: saline 95 % of control | dose: 100.0 mg/kg/injection, schedule: Q01DX009 (ip), vehicle: saline 113 % of control | dose: 200.0 mg/kg/injection, schedule: Q01DX009 (ip), vehicle: saline 103 % of control

O=C(O)/C=C(/Oc1ccc(Cl)cc1Cl)C(=O)O
inactive: [3] 97 % of control | dose: 100.0 mg/kg/injection, schedule: Q04DX002 (ip), vehicle: saline with Tween-80 100 % of control | [4] 87 % of control | dose: 200.0 mg/kg/injection, schedule: Q04DX002 (ip), vehicle: saline with Tween-80 100 % of control | [8] 110 % of control | dose: 400.0 mg/kg/injection, schedule: Q04DX002 (ip), vehicle: saline with Tween-80 100 % of control

CCCCCCCCCCCCN(CCCCCCCCCCCC)S(=O)(=O)c1ccc(Cl)c([N+](=O)[O-])c1
inactive: [9] 94 % of control | [10] 94 % of control | [11] 104 % of control

O=C(CCCC(=O)N/N=C/c1cccc(Br)c1)N/N=C\c1cccc(Br)c1
inactive: [17] 90 % of control | [18] 88 % of control
